This note sets out measurements from patent US20250243488A1, “METHODS OF MODULATING PROGRANULIN EXPRESSION USING ANTISENSE OLIGONUCLEOTIDES TARGETING REGULATORY RNAS” (Camp4 Therapeutics Corporation, priority 2022, published 2025).

The series deals with GRN mRNA. The series can be described thus: GRN mRNA qPCR in SK-N-AS cells transfected with ASOs. In kind it is cell-based, human. To be noted: SK-N-AS; for 30 nM FC (GRN mRNA) / 60 nM FC (GRN mRNA) / 120 nM FC (GRN mRNA): Table 6, normalized to CO-3772, CO-1589 and CO-1929; for hGRN mRNA FC: Table 9, 48 hours post-transfection, normalized to CO-1589; for 120 nM FC (GRN mRNA) / hGRN mRNA FC: 120 nM. Here is the method:
The best ASOs based on increased GRN mRNA fold-change were selected for further characterization in dose titration studies. Briefly, human neuroblastoma SK-N-AS cells were transfected with 20 to 160 nM of ASOs CO-3423, CO-3431, CO-3463, and CO-3503. A steric non-targeting control ASO (sNTC) was used as a control. Cells were collected for mRNA analysis after 48 hours and GRN mRNA quantified by qPCR. Housekeeping genes for normalization were GAPDH and PPIA, and mRNA fold change (FC) was normalized to sNTC.
36 additional ASOs were designed with different modifications and base walking around selected ASOs. The effect of increasing doses of these ASOs was assessed in the human neuroblastoma cell line SK-N-AS following transfection. Relative GRN mRNA levels in SK-N-AS cells after treatment was assessed 48-hours post-transfection, and data from exemplary ASOs is shown in FIGS. 5A and 5B.
Additional chemical modifications, including LNA, modifications were made to CO-3423. SK-N-AS cells were transfected with increasing concentrations of the LNA/PS modified ASOs and GRN mRNA quantified by qPCR. ASOs including different LNA modifications of CO-3423 had similar efficacy (i.e, similar increased GRN mRNA expression). GRN mRNA was normalized to the average fold-change of cells treated with two steric non-targeting control ASOs (CO-3772 and CO-1589 (sNTC1)).
The effect of ASO length on GRN gene expression modulation was also investigated. SK-N-AS cells were transfected with increasing concentrations of the longer ASOs and GRN mRNA quantified by qPCR. Increasing the length of CO-3423 increased the potency of the ASO, as shown in Table 4. mRNA was normalized to the average fold change of cells treated with two steric non-targeting control ASOs (CO-3772 and CO-1589 (sNTC1)).
To determine whether variations in the PO/PS internucleotide bond linkages impacted the ability of CO-3423 and CO-3431 to modulate gene expression, several modified ASOs based on these parent ASOs were prepared. SK-N-AS cells were transfected with increasing concentrations of the mixed PO/PS bond ASOs described in Tables 5 and 6, and GRN mRNA quantified by qPCR.
GRN mRNA fold-change after treatment with mixed PO/PS bond versions of CO-3423 is shown in Table 5. mRNA was normalized to the average fold change of cells treated with steric nontargeting controls (CO-3772, CO-1589 (sNTC1), and CO-1929 (sNTC3)).
GRN mRNA fold-change after treatment with mixed PO/PS bond versions of CO-3431 is shown in Table 6. mRNA was normalized as described above.
To further assess the effect of additional modifications on the ability of CO-3423 parent ASO to modulate GRN gene expression, additional LNA tiling and PO bond modifications were incorporated to CO-3423. SK-N-AS cells were transfected with increasing concentrations of the modified ASOs and GRN mRNA quantified by qPCR. CO-3423 was used for comparison. GRN mRNA was normalized to the average fold-change of cells treated with a steric non-targeting control ASO, CO-1589 (sNTC1).
To further assess the effect of modifications on the ability of CO-3463 parent ASO to modulate GRN gene expression, ASOs based on this ASOS incorporating additional LNA modifications were prepared and compared to […]. SK-N-AS cells were transfected with increasing concentrations of the ASOs and GRN mRNA quantified by qPCR. GRN mRNA was normalized to the average fold-change of cells treated with a steric non-targeting control ASO, CO-1589 (sNTC1).
68 additional ASOs were designed to target intergenic enhancers (eRNA). 48 hours post-transfection, the cells were collected for GRN mRNA analysis using qPCR. CO-1589, a steric nontargeting control ASO, was used as a control. GRN mRNA was normalized to cells treated with CO-1589.
The best hits from these ASOs were tested in a dose escalation study. Cells were incubated for 48 hours. Subsequently, the cells were collected for mRNA quantification via RT-qPCR. […]
(In general: In qPCR the cycle at which signal appears reflects the starting amount.)

Oligonucleotides are written 5' to 3', each unit as a sugar letter and its base; * is a phosphorothioate linkage, no mark a phosphodiester; rarer units and linkages stand in square brackets, end groups in braces. Plain capitals give the bases only. e = 2'-O-(2-methoxyethyl) (MOE); [5mC] = 5-methylcytosine

For the substance “CO-4456: mixed PO/PS bond version of CO-3431 (antisense eA*eT*eTeGe[5mC]eAeG*eT*eG*eA*e[5mC]*eG*e[5mC]*e[5mC]e[5mC]e[5mC]eGeT*eT*eA)”, the “30 nM FC (GRN mRNA)” value came to 0.7 FC, the “60 nM FC (GRN mRNA)” value is 0.5 FC and the “120 nM FC (GRN mRNA)” value worked out at 0.4 FC.

As for “CO-4457: mixed PO/PS bond version of CO-3431 (antisense eA*eT*eTeGe[5mC]eAeGeTeGeAe[5mC]eGe[5mC]e[5mC]e[5mC]e[5mC]eGeT*eT*eA)”, the “30 nM FC (GRN mRNA)” value is 0.2 FC, the “60 nM FC (GRN mRNA)” value worked out at 0.1 FC and the “120 nM FC (GRN mRNA)” value is reported as 0.1 FC.

With “CO-4585: ASO designed to target intergenic enhancers (eRNA) (antisense eT*e[5mC]*eG*eA*eA*eT*e[5mC]*eT*e[5mC]*e[5mC]*eG*eG*e[5mC]*eT*e[5mC]*eT*eT*e[5mC]*eA*e[5mC])”, the “hGRN mRNA FC” value was found to be 1.4 FC.

Consider “CO-4586: ASO designed to target intergenic enhancers (eRNA) (antisense eT*eG*eA*e[5mC]*eA*eA*eG*e[5mC]*eG*eG*eG*eA*eT*e[5mC]*eG*eG*eA*eG*eA*eG)”, for which the “hGRN mRNA FC” value is reported as 0.9 FC.

With “CO-4587: ASO designed to target intergenic enhancers (eRNA) (antisense eT*eT*e[5mC]*eT*eA*eA*eA*e[5mC]*eG*e[5mC]*eG*eA*eA*eG*eT*eG*eG*eG*eT*eG)”, the “hGRN mRNA FC” value is reported as 1.2 FC.

As to “CO-4588: ASO designed to target intergenic enhancers (eRNA) (antisense eG*e[5mC]*eT*eG*eG*eT*eT*eT*e[5mC]*eT*e[5mC]*eT*eG*eT*eT*eA*eG*eG*eA*e[5mC])”, the “hGRN mRNA FC” value was 0.9 FC.

As for “CO-4589: ASO designed to target intergenic enhancers (eRNA) (antisense e[5mC]*eG*e[5mC]*eA*eG*eG*e[5mC]*eT*eA*eG*eG*eA*eG*eT*eA*e[5mC]*e[5mC]*e[5mC]*eA*eT)”, the “hGRN mRNA FC” value is recorded as 1.1 FC.

Consider “CO-4590: ASO designed to target intergenic enhancers (eRNA) (antisense eG*eT*e[5mC]*eA*eA*eA*eG*eT*e[5mC]*eG*eA*eG*eG*e[5mC]*e[5mC]*eT*eA*e[5mC]*e[5mC]*e[5mC])”, for which the “hGRN mRNA FC” value was 1.3 FC.

On to “CO-4591: ASO designed to target intergenic enhancers (eRNA) (antisense eG*eA*eT*eA*eG*eT*eT*eG*eG*e[5mC]*e[5mC]*e[5mC]*e[5mC]*eT*e[5mC]*eG*eG*eA*eG*eT)”, for which the “hGRN mRNA FC” value turned out to be 1.1 FC.

On to “CO-4592: ASO designed to target intergenic enhancers (eRNA) (antisense eG*eG*eT*e[5mC]*eA*e[5mC]*eA*eG*eA*eT*eT*eG*e[5mC]*eA*e[5mC]*eT*e[5mC]*eT*e[5mC]*e[5mC])”, for which the “hGRN mRNA FC” value is listed as 1.1 FC.

Turning to “CO-4593: ASO designed to target intergenic enhancers (eRNA) (antisense eT*eT*eT*eT*eG*e[5mC]*e[5mC]*e[5mC]*eA*eG*e[5mC]*eG*e[5mC]*e[5mC]*e[5mC]*e[5mC]*eT*eT*eT*eA)”, the “hGRN mRNA FC” value was found to be 0.8 FC.

As to “CO-4594: ASO designed to target intergenic enhancers (eRNA) (antisense eA*eA*eA*eG*eG*eA*e[5mC]*eG*e[5mC]*e[5mC]*eT*eT*e[5mC]*eT*e[5mC]*eT*e[5mC]*eG*eG*eG)”, the “hGRN mRNA FC” value worked out at 1.3 FC.

Consider “CO-4595: ASO designed to target intergenic enhancers (eRNA) (antisense eA*eG*e[5mC]*e[5mC]*e[5mC]*eG*eA*e[5mC]*e[5mC]*eT*eT*eG*eA*e[5mC]*eT*eG*eA*eT*eA*eG)”, for which the “hGRN mRNA FC” value was 1.0 FC.

For the substance “CO-4596: ASO designed to target intergenic enhancers (eRNA) (antisense e[5mC]*eA*eA*e[5mC]*eT*eA*eT*e[5mC]*eA*eG*eT*e[5mC]*eA*eA*eG*eG*eT*e[5mC]*eG*eG)”, the “hGRN mRNA FC” value is given as 1.0 FC.

In the case of “CO-4597: ASO designed to target intergenic enhancers (eRNA) (antisense eA*eG*eG*e[5mC]*eG*eT*e[5mC]*e[5mC]*eT*eT*eT*e[5mC]*e[5mC]*eA*eT*eT*e[5mC]*e[5mC]*e[5mC]*eT)”, the “hGRN mRNA FC” value is 0.9 FC.

For the substance “CO-4598: ASO designed to target intergenic enhancers (eRNA) (antisense eG*eT*eG*e[5mC]*eA*eA*eT*e[5mC]*eT*eG*eT*eG*eA*e[5mC]*e[5mC]*eT*eG*eT*eA*eA)”, the “hGRN mRNA FC” value is reported as 1.1 FC.

Turning to “CO-4599: ASO designed to target intergenic enhancers (eRNA) (antisense eG*eG*e[5mC]*e[5mC]*eA*eA*e[5mC]*eT*eA*eT*e[5mC]*eA*eG*e[5mC]*eT*eT*eT*e[5mC]*e[5mC]*e[5mC])”, the “hGRN mRNA FC” value amounted to 1.0 FC.

For “CO-4600: ASO designed to target intergenic enhancers (eRNA) (antisense eT*eT*eA*eG*e[5mC]*eA*e[5mC]*eG*eT*eG*eG*eA*e[5mC]*eT*e[5mC]*e[5mC]*eG*eA*eG*eG)”, the “hGRN mRNA FC” value is reported as 1.0 FC.

Take “CO-4601: ASO designed to target intergenic enhancers (eRNA) (antisense eG*eT*eA*eG*eG*e[5mC]*e[5mC]*eT*e[5mC]*eG*eA*e[5mC]*eT*eT*eT*eG*eA*e[5mC]*eG*eT)”: the “hGRN mRNA FC” value came out at 1.0 FC.

For the substance “CO-4602: ASO designed to target intergenic enhancers (eRNA) (antisense eT*eA*e[5mC]*eT*e[5mC]*e[5mC]*eT*eA*eG*e[5mC]*e[5mC]*eT*eG*e[5mC]*eG*e[5mC]*e[5mC]*eT*eT*eT)”, the “hGRN mRNA FC” value is listed as 1.2 FC.

Regarding “CO-4603: ASO designed to target intergenic enhancers (eRNA) (antisense e[5mC]*e[5mC]*eA*e[5mC]*eT*eT*e[5mC]*eG*e[5mC]*eG*eT*eT*eT*eA*eG*eA*eA*e[5mC]*eT*eT)”, the “hGRN mRNA FC” value is given as 1.3 FC.

Regarding “CO-4604: ASO designed to target intergenic enhancers (eRNA) (antisense eT*e[5mC]*eT*e[5mC]*e[5mC]*eG*eA*eT*e[5mC]*e[5mC]*e[5mC]*eG*e[5mC]*eT*eT*eG*eT*e[5mC]*eA*eG)”, the “hGRN mRNA FC” value is reported as 1.2 FC.

As to “CO-4605: ASO designed to target intergenic enhancers (eRNA) (antisense e[5mC]*eG*eG*eG*eA*eG*eA*e[5mC]*eA*eG*eG*eA*eA*eG*eG*e[5mC]*eT*eT*eA*eA)”, the “hGRN mRNA FC” value is reported as 1.2 FC.
